Source: US20170058314A1, “NOVEL METHODOLOGY FOR IDENTIFYING ANTI-PERSISTER ACTIVITY AND ANTIMICROBIAL SUSCEPTIBILITY FOR BORRELIA BURGDORFERI AND OTHER BACTERIA” (priority 2014, published 2017)
≈ marks a conversion by molar mass, not a printed value. Read-outs that look alike come from different tables or passages of the source.

How the values were obtained:
[1] = system: log phase and stationary phase B. burgdorferi culture; experiment: Antibiotic exposure assay, SYBR Green I/PI (drugs alone and combinations); conditions: for viability at 10 µg/mL: Borreliella burgdorferi, 168 h
Method: (§1) To qualitatively determine the effect of antibiotics, 10 μL of each compound from the pre-diluted plate or pre-diluted stock was added to stationary phase B. burgdorferi culture in the 96-well plate. The final volume per well was adjusted to 100 μL at a concentration of 10 μg/mL for each antibiotic. Plates were sealed and placed in a 33° C. incubator for 7 days. The SYBR Green I/PI viability assay was used to assess the live and dead cells after antibiotic exposure as described (Feng, Wang, Shi, et al., 2014). Briefly, 10 μL of SYBR Green I (10,000×stock, Invitrogen) was mixed with 30 μL propidium iodide (PI, 20 mM) into 1.0 mL of sterile dH2O. Then, 10 μL of staining mixture was added to each well and mixed thoroughly. The plates were incubated at room temperature in the dark for 15 minutes followed by plate reading at excitation wavelength at 485 nm and the fluorescence intensity at 535 nm (green emission) and 635 nm (red emission) in microplate reader (HTS 7000 plus Bio Assay Reader, PerkinElmer Inc., USA). With least-square fitting analysis, the regression equation and regression curve of the relationship between percentage of live bacteria and green/red fluorescence ratios was obtained. The regression equation was used to calculate the percentage of live cells in each well of the 96-well plate.
To qualitatively determine the effect of antibiotics, 10 μL of each compound (final concentration 50 μM) from the pre-diluted plate or pre-diluted stock was added to round body form or stationary phase B. burgdorferi culture in the 96-well plate. The final volume per well was adjusted to 100 μL. Plates were sealed and placed in a 33° C. incubator for 7 days. The SYBR Green I/PI viability assay was used to assess the live and dead cells after antibiotic exposure as described (Feng, Wang, Shi, et al., 2014). Briefly, 10 μL of SYBR Green I (10,000×stock, Invitrogen) was mixed with 30 μL propidium iodide (PI, 20 mM, Sigma-Aldrich) into 1.0 mL of sterile dH2O. Then, 10 μL staining mixture was added to each well and mixed thoroughly. The plates were incubated at room temperature in the dark for 15 minutes followed by plate reading at excitation wavelength at 485 nm and the fluorescence intensity at 535 nm (green emission) and 635 nm (red emission) in microplate reader (HTS 7000 plus Bio Assay Reader, PerkinElmer Inc., USA). With least-square fitting analysis, the regression equation and regression curve of the relationship between percentage of live and dead bacteria as shown in green/red fluorescence ratios was obtained. The regression equation was used to calculate the percentage of live cells in each well of the 96-well plate.
Round body form and ten day old stationary phase (in brackets) B. burgdorferi culture was treated with 10 μg/mL drugs or their combinations for 7 days. Residual viable B. burgdorferi was calculated according to the regression equation and ratio of Green/Red fluorescence obtained by SYBR Green I/PI assay as described (Feng, Wang, Shi, et al., 2014). Direct microscopy counting was employed to rectify the results of the SYBR Green I/PI assay. […] Abbreviation: Dox, doxcycline; CefP, cefoperazone; DAP, daptomycin; CefM, cefmetazole; Scp, sulfachlorpyridazine; Art, artemisinin; Nft, nitrofurantoin.

[2] = system: stationary phase B. burgdorferi persisters (strain B31); experiment: epifluorescence microscope counting after SYBR Green I/PI staining, FDA drug screen; conditions: Borreliella burgdorferi, 168 h, read-out: Residual viable cells (epifluorescence microscope counting)
[3] = system: stationary phase B. burgdorferi persisters (strain B31); experiment: SYBR Green I/PI viability assay (plate reader), FDA-approved drug library screen; conditions: for Ratio of Green/Red fluorescence, Primary screening / Ratio of Green/Red fluorescence, Rescreening (first column) / Ratio of Green/Red fluorescence, Rescreening (second column): 50 μM, 7 days, stationary phase; for viability at 50 µM: Borreliella burgdorferi, 168 h, read-out: Residual viable cells (regression equation, SYBR Green I/PI assay)
[4] = system: round body form of B. burgdorferi; experiment: Subculture test of drug-treated round body form
Method: For induction of round body form of B. burgdorferi, B. burgdorferi spirochetes (1×10^5 spirochetes/mL) were cultured in BKS-H medium for 6 days without shaking. After the 6-day incubation, amoxicillin at a final concentration of 50 μg/mL was added to the culture for round body form induction. After 72 h induction at 33° C., the round body forms of B. burgdorferi were examined by the microscopy. The round body cells (100 μL) were transferred to 96-well tissue culture microplates for evaluation of the effects of antibiotic treatment.

[5] = system: B. burgdorferi (growing, strain B31); experiment: MIC determination, standard microdilution method; assay type: cell-based, Borrelia burgdorferi; conditions: for sensitivity of log phase / multiplying B. burgdorferi (words, FIG. 12): MIC test
[6] = system: B. burgdorferi log and stationary phase cultures; experiment: epi-fluorescence microscope counting after antibiotic exposure (persister frequency, planktonic forms); assay type: cell-based, Borrelia burgdorferi; conditions: 10-day-old stationary phase culture, 10 μg/mL, 7 days, FIG. 17A
Method: Specimens were examined on a Nikon Eclipse E800 microscope equipped with differential interference contrast (DIC) and epi-fluorescence illumination, and recorded with a Spot slider color camera. Cell proliferation assays were performed by direct counting using a bacterial counting chamber (Hausser Scientific Partnership) and DIC microscopy. SYBR Green I/PI assay was performed to assess the viability of B. burgdorferi. The ratio of live (green) and dead (red) B. burgdorferi was calculated by counting these cells using a bacterial counting chamber and epi-fluorescence microscopy. The three representative images of every sample were captured for quantitative analysis. Image Pro-Plus software was applied for measuring the biomass (fluorescence intensity) of different forms (spirochetes, round body, and microcolony) of B. burgdorferi as previously described (Shopov and Williams, 2000).
as §1
Therefore, the frequency of B. burgdorferi persisters in log phase and stationary phase cultures was assessed using the SYBR Green I/PI viability assay after exposure of the cultures to antimicrobials. E. coli culture was used as a control after exposure to antibiotics to validate the SYBR Green I/PI viability assay for persister frequency assessment.

[7] = system: stationary phase B. burgdorferi; experiment: Subculture test of drug-treated stationary phase B. burgdorferi; assay type: cell-based, Borrelia burgdorferi
Method: Seven-day-old B. burgdorferi culture (1×10^7 spirochetes/mL) (500 μL) was treated with drugs or drug combinations in Eppendorf tubes. After incubation at 33° C. for 7 days without shaking, the cells were collected by centrifugation and rinsed with 1 mL fresh BSK-H medium followed by resuspension in 500 μL fresh BSK-H medium without antibiotics. Then 50 μL of cell suspension was transferred to 1 mL fresh BSK-H medium for subculture at 33° C. for 2 weeks. Cell proliferation was assessed using SYBR Green I/PI assay and bacterial counting chamber (Hausser Scientific Partnership) by microscopy as described above.

[8] = system: round body form of B. burgdorferi; experiment: SYBR Green I/PI assay on amoxicillin-induced round body form; conditions: for viability at 50 µM: Borreliella burgdorferi, 168 h, read-out: Residual viable cells (SYBR Green I/PI assay)
[9] = system: B. burgdorferi (growing, strain B31); conditions: actively growing B. burgdorferi; Feng, Wang, Shi, et al., 2014; cited from earlier work
[10] = system: E. coli strains (W3110, UTI89, CFT073, KTE181); experiment: Rapid SYBR Green/PI antibiotic susceptibility test; assay type: cell-based, Escherichia coli; conditions: for percent killed, sensitive strain W3110: ampicillin 100 μg/mL, others 25 μg/mL; for percent killed, resistant strain KTE181: ampicillin 100, trimethoprim 25, streptomycin 25 μg/mL; for cut-off (averaged proportion of killed cells) for resistant strains / cut-off (averaged proportion of killed cells) for susceptible strains: ampicillin, trimethoprim 5 μg/mL
[11] = 10 μg/mL drugs or combinations, 7 days
[12] = read-out: Live Cell % (residual viable B. burgdorferi), ten-day-old stationary phase culture enriched with micro-colonies, 10 μg/mL each drug, 7 days
[13] = 10 μg/mL, 7 days treatment, then subculture
[14] = read-out: Live Cell % (residual viable B. burgdorferi)

CCN1CCN(C(=O)N[C@@H](C(=O)N[C@@H]2C(=O)N3C(C(=O)O)=C(CSc4nnnn4C)CS[C@H]23)c2ccc(O)cc2)C(=O)C1=O [Cefoperazone]
Live cell %, ten day old stationary phase culture (in brackets) [1, 11]: 64% | viability at 10 µg/mL [1, 12]: 64% | viability at 50 µM [2]: 37% | Ratio of Green/Red fluorescence, Primary screening [3]: 6.54 | Ratio of Green/Red fluorescence, Rescreening (first column) [3]: 6.32 | Ratio of Green/Red fluorescence, Rescreening (second column) [3]: 6.23 | viability at 50 µM [3]: 34% | Spirochetes number After 10 day subculture [4, 13]: 9 × 10^5 | Spirochetes number After 20 day subculture [4, 13]: 4 × 10^6 | viability at 10 µg/mL ([4]; Borreliella burgdorferi, 168 h, read-out: Residual viable cells): 33% | sensitivity of log phase / multiplying B. burgdorferi (words, FIG. 12) [5]: very sensitive | planktonic form cells remaining green (live) [6]: 52% | G/R ratio immediately after treatment ([7]; 10 μg/mL, 7 days): 6.60 | G/R ratio after 7 day subculture [7, 13]: 6.13 | G/R ratio after 15 day subculture [7, 13]: 6.95 | Spirochetes after 7 day subculture (microscope counting) [7, 13]: 1.5 × 10^6 | Spirochetes after 15 day subculture (microscope counting) [7, 13]: 5 × 10^6 | viability at 10 µg/mL ([7]; Borreliella burgdorferi, 168 h, read-out: Residual viable cells (epifluorescence microscope counting)): 61% | Live cell %, round body form [8, 11]: 30%

CC[C@H]1OC(=O)[C@H](C)[C@@H](O[C@H]2C[C@@](C)(OC)[C@@H](O)[C@H](C)O2)[C@H](C)[C@@H](O[C@@H]2O[C@H](C)C[C@H](N(C)C)[C@H]2O)[C@](C)(OC)C[C@@H](C)C(=O)[C@H](C)[C@@H](O)[C@]1(C)O [Clarithromycin]
viability at 10 µg/mL [1, 12]: 63% | viability at 50 µM [2]: 70% | Ratio of Green/Red fluorescence, Primary screening [3]: 7.70 | Ratio of Green/Red fluorescence, Rescreening (first column) [3]: 7.36 | Ratio of Green/Red fluorescence, Rescreening (second column) [3]: 7.59 | viability at 50 µM [3]: 65%

CC(C)/N=c1\cc2n(-c3ccc(Cl)cc3)c3ccccc3nc-2cc1Nc1ccc(Cl)cc1 [Clofazimine]
viability at 10 µg/mL [1, 14]: 73% | viability at 50 µM [2]: 45% | Ratio of Green/Red fluorescence, Primary screening [3]: 6.56 | Ratio of Green/Red fluorescence, Rescreening (first column) [3]: 6.23 | Ratio of Green/Red fluorescence, Rescreening (second column) [3]: 6.02 | viability at 50 µM [3]: 32% | MIC (previous study) [9]: 6.25 µg/mL (≈ 13.2 µM) | MIC ([5]; Borreliella burgdorferi, growing B. burgdorferi, read-out: MIC): 6.25 µg/mL (≈ 13.2 µM) | sensitivity of log phase / multiplying B. burgdorferi (words, FIG. 12) [5]: less potent | viability at 50 µM [8]: 32% | Ratios of green/red fluorescence, Primary screening ([8]; round body form, 50 μM, 7 days): 6.29 | Ratios of green/red fluorescence, Rescreening (first column) ([8]; round body form, 50 μM, 7 days): 6.22 | Ratios of green/red fluorescence, Rescreening (second column) ([8]; round body form, 50 μM, 7 days): 6.24

[H]/N=C(/N)N[C@H]1[C@H](O)[C@@H](O)[C@H](O[C@@H]2O[C@@H](C)[C@](O)(C=O)[C@H]2O[C@@H]2O[C@@H](CO)[C@H](O)[C@@H](O)[C@@H]2NC)[C@@H](N/C(N)=N\[H])[C@@H]1O [Streptomycin]
Ratio of Green/Red fluorescence, Primary screening [3]: 6.72 | Ratio of Green/Red fluorescence, Rescreening (first column) [3]: 6.93 | Ratio of Green/Red fluorescence, Rescreening (second column) [3]: 6.76 | viability at 50 µM [3]: 45% | percent killed, sensitive strain W3110 ([10]; 30 minutes): 29% | percent killed, resistant strain KTE181 ([10]; 30 minutes): 0% | cut-off (averaged proportion of killed cells) for resistant strains ([10]; streptomycin 100 μg/mL): −0.1 | cut-off (averaged proportion of killed cells) for susceptible strains ([10]; streptomycin 100 μg/mL): −0.6 | cut-off (averaged proportion of killed cells) for intermediate resistance ([10]; streptomycin 100 μg/mL): −0.5

CN(C)c1cc(NC(=O)CNC(C)(C)C)c(O)c2c1C[C@H]1C[C@H]3[C@H](N(C)C)C(O)=C(C(N)=O)C(=O)[C@@]3(O)C(O)=C1C2=O [Tigecycline]
viability at 10 µg/mL [1, 14]: 67% | viability at 50 µM [2]: 58% | Ratio of Green/Red fluorescence, Primary screening [3]: 6.98 | Ratio of Green/Red fluorescence, Rescreening (first column) [3]: 7.06 | Ratio of Green/Red fluorescence, Rescreening (second column) [3]: 6.96 | viability at 50 µM [3]: 51%

CN[C@H](CC(C)C)C(=O)N[C@H]1C(=O)N[C@@H](CC(N)=O)C(=O)N[C@H]2C(=O)N[C@H]3C(=O)N[C@H](C(=O)N[C@H](C(=O)O)c4cc(O)cc(O)c4-c4cc3ccc4O)[C@H](O)c3ccc(c(Cl)c3)Oc3cc2cc(c3O[C@@H]2O[C@H](CO)[C@@H](O)[C@H](O)[C@H]2O[C@H]2C[C@](C)(N)[C@H](O)[C@H](C)O2)Oc2ccc(cc2Cl)[C@H]1O [Vancomycin]
viability at 10 µg/mL [1, 14]: 64% | viability at 50 µM [2]: 48% | Ratio of Green/Red fluorescence, Primary screening [3]: 6.65 | Ratio of Green/Red fluorescence, Rescreening (first column) [3]: 6.58 | Ratio of Green/Red fluorescence, Rescreening (second column) [3]: 6.37 | viability at 50 µM [3]: 38% | viability at 50 µM [8]: 38%

COc1cc(Cc2cnc(N)nc2N)cc(OC)c1OC [trimethoprim]
percent killed, sensitive strain W3110 ([10]; 30 minutes): 47% | percent killed, resistant strain KTE181 ([10]; 30 minutes): 1% | percent killed, resistant strain CFT073 ([10]; 30 minutes, trimethoprim 25 μg/mL): 22% | cut-off (averaged proportion of killed cells) for resistant strains ([10]; streptomycin 100 μg/mL): -0.2 | cut-off (averaged proportion of killed cells) for susceptible strains ([10]; streptomycin 100 μg/mL): −0.5
